Laboratory results published in patent US20050053921A1, “Systems for screening anti-hepatitis drugs” (priority 2003, published 2005).

What was measured:
NS3/4A protease = NS3/4A protease (Hepatitis C virus genotype 1a, UniProt P27958); test: cell-based; parameters: species or system HCV type 1a
Procedure: One of the cloned cell lines was further infected with the lentiviral vector encoding NS 3/4A gene. After zeocin selection (250 μg/ml) for 3 to 4 weeks, one zoscine-resistant clone was obtained. This cell line was confirmed by Western blot to express both NS3/4A protease and EG(D4AB)SEAP, and therefore designated as 293P-EG(Δ4AB)SEAP-NS3/4A.
More specifically, 293P-EG(Δ4AB)SEAP-NS3/4A cells were seeded in 96-well plates (1.5×10^4 cells per well) and cultured at 37° C. overnight. […] Two days later, the culture medium in each well was replaced with fresh phenol red-free DMEM/10% FBS containing the same concentration of drugs. After another day, the culture medium was collected and the SEAP activity was measured using a Phospha-Light assay kit (Tropix, Foster City, Calif., USA) according to manufacturer's instruction.

[1] = system: 293P-EG(Δ4AB)SEAP-NS3/4A cells; test: MTS cellular toxicity assay; format: cell-based; conditions: concentration up to 10 μM
[2] = target: T1, NS3/4A protease in Ava5-EG(Δ4AB)SEAP cells (Hepatitis C virus genotype 1b, UniProt Q9WMX2); test: SEAP activity in medium of stable Ava5-EG(Δ4AB)SEAP cells; format: cell-based, HCV; conditions: for extracellular SEAP activity: TPCK 0-40 μM or IFN-γ 0-100 I.U./ml
T1 construct: Ava5 cells expressed endogenous NS3/4A protease; endogenous in cells; host or cells: Ava5 cells (Huh-7 carrying an HCV subgenomic replicon)
T1 sequence (Q9WMX2 1027-1657, stated change not applied): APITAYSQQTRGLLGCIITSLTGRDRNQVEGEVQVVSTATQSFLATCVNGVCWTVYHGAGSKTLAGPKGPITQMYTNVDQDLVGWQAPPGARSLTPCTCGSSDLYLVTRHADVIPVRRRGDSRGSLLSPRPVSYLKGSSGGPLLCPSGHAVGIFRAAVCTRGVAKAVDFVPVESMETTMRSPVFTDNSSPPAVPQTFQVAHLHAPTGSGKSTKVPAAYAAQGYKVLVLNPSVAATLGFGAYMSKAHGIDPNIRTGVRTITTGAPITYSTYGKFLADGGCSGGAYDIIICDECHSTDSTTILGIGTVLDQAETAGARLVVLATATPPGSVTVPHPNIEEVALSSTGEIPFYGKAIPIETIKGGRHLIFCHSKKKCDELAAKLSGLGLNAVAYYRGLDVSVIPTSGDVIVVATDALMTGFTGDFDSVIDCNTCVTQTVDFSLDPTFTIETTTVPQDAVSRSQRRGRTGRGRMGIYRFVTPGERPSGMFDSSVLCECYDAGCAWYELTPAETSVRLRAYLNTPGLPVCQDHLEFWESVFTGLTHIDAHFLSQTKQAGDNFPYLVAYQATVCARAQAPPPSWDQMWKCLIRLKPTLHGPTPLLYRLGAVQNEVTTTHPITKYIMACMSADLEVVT
T1 sequence (Q9WMX2 1658-1711, stated change not applied): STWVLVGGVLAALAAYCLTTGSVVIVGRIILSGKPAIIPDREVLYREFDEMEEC
Procedure: (§1) After the cotransfection, culture media and cell lysates were harvested at 12-hour intervals. The SEAP activity in the culture medium and the β-galactosidase activity in the cell lysates were measured using Phospha-Light and Galacto-Star assay kits (Tropix, Foster, Calif., USA), respectively. The respective chemiluminescent intensities were detected by a Top Counter Microplate Scintillation and Luminescence Counter (Packard, Meriden, Conn., USA). The intensities reflected the relative activities of SEAP and […]. In these experiments, the β-gal activity was used to normalize transfection efficiency according standard techniques. Meanwhile, fluorescence emitted from the green fluorescent protein was examined using a fluorescence microscope (Nikon DIAPHOT 300).
Huh-7 or Ava5 cells were seeded in 24-well plates at a density of 2×10^4 cells per well. After incubation at 37° C. overnight, the cells were transduced with serial dilutions of lentiviral particles in the presence of 6 μg/ml polybrene (Sigma, St. Louis, Mo., USA) in the manner described above. After incubation for 24 hours, the virus-containing medium was replaced by a fresh medium and the cells were incubated for another 2 days. The cells were then selected in the presence of 10 μg/ml of blasticidin for 3-4 weeks.
One blasticidin-resistant Huh-7 clone and two blasticidin-resistant Ava5 clones were obtained. Cell lines thus produced were designated as Huh-7-EG(Δ4AB)SEAP and […], respectively. The cells were then examined for expression of EG(Δ4AB)SEAP and the amount NS3 protein by Western blot analysis using anti-EGFP antibody and anti-NS3 antibody, respectively. […] They also expressed free EGFP, resulting from the cleavage of the EG(Δ4AB)SEAP by NS3/4A protease. In naive Huh-7 and Ava5 cells, neither free EGFP nor NS3 could be detected.
(§2) Ava5-EG(Δ4AB)SEAP clone 1 was further treated by IFN-α (0-50 units/ml) in the manner described above. They, the cells were examined for cellular NS3/4A protein and HCV RNA levels by western blot and dot blot, respectively. The dot blot was conducted as follows: RNA was extracted using TRIZOL reagent (Invitrogen). Three micrograms of RNA was dissolved in 100 μl of TE buffer (10 mM Tris-HCl, 1 mM EDTA, pH 7.5) and 60 μl of 20×SSC, and 40 μl of 37% formaldehyde stock solution were added. The samples were incubated at 60° C. for 15 min and then applied to pre-wetted nylon membrane using an S&S Minifold® I dot-blot device (Schleicher & Schuell GmbH, Relliehausen, Germany). Each well was washed twice with 6×SSC. Bound RNA was immobilized onto the membrane by UV-cross linking (Stratagene, La Jolla, Calif., USA) under the autocross-link condition, then hybridization and counting were conducted as described (Lee et al., 2003. Anal. Biochem.316, 162-170a). The membrane was probed with NS5B gene fragment of HCV labeled with […] by rediprime II random primer labeling system (Amersham Biosciences, Buckinghamshire, England). The blots were visualized by autoradiography and intensities of the blots were measured by densitometry (UVP GDS-8000 BioImaging System, Upland, Calif., USA).
The just-described cell line was used to examined several other known anti-HCV compounds, such as an NS3/4A inhibitor, N-tosyl-1-phenylalanine chloromethyl ketone (TPCK) (Berdichevsky et al., 2003, J. Virol. Methods 107, 245-255.), and IFN-γ (Frese et al., 2002, Hepatology 35, 694-703.). […]

[3] = system: endogenous NS3/4A protease in Ava5 cells; test: SEAP activity in medium of Ava5 cells transiently transfected with EG(Δ4AB)SEAP; format: cell-based, HCV; conditions: 100 IU/ml
Sequence of endogenous NS3/4A protease in Ava5 cells (Q9WMX2 1027-1657): as the sequence (Q9WMX2 1027-1657, stated change not applied) above
Procedure: as §1
Ava5 cells expressed endogenous NS3/4A protease. […] Western blotting was also conducted in the same manner.

[4] = system: HCV subgenomic replicons (HCV RNA); test: HCV RNA level by Northern hybridization in Ava5 cells expressing EG(Δ4AB)SEAP; format: cell-based; conditions: 100 IU/ml
HCV RNA = HCV RNA level by dot blot in Ava5-EG(Δ4AB)SEAP clone 1; format: cell-based; conditions: 0-50 units/ml
Procedure: as §2

NS3/4A protein = test: Cellular NS3/4A protein level by western blot in Ava5-EG(Δ4AB)SEAP clone 1; format: cell-based, HCV; conditions: 0-50 units/ml
Sequence of NS3/4A protein (Q9WMX2 1027-1657): as the sequence (Q9WMX2 1027-1657, stated change not applied) above
Procedure: as §2

HCV NS3 protease = conditions: 100 IU/ml, Ava5 cells, especially after 3 days of treatment
Sequence of HCV NS3 protease (Q9WMX2 1027-1657): as the sequence (Q9WMX2 1027-1657, stated change not applied) above
Procedure: They were maintained in DMEM/10% FBS/1 mg/ml G418 (Geneticin) and DMEM/10% FBS, respectively. Ava5 cells expressed endogenous NS3/4A protease. The above-described dual-reporter construct was transient transfected into the cells in the same manner descried above except that FuGENE 6 (Roche), instead of LipofectamineTM was used. Western blotting was also conducted in the same manner.
Ava5 cells expressing EG(Δ4AB)SEAP were then tested for the ability to screen for HCV protease inhibitors. More specifically, the cells were treated with IFN-α (Schering-Plough Corp., Kenilworth, N.J., USA) and examined for the SEAP activity in their medium in the manner described above.
The protein level of NS3 protease was also determined by standard techniques.

[5] = Ava5-EG(Δ4AB)SEAP cells, 72 hours

Sequence of NS3/4A protease (P27958 1027-1657): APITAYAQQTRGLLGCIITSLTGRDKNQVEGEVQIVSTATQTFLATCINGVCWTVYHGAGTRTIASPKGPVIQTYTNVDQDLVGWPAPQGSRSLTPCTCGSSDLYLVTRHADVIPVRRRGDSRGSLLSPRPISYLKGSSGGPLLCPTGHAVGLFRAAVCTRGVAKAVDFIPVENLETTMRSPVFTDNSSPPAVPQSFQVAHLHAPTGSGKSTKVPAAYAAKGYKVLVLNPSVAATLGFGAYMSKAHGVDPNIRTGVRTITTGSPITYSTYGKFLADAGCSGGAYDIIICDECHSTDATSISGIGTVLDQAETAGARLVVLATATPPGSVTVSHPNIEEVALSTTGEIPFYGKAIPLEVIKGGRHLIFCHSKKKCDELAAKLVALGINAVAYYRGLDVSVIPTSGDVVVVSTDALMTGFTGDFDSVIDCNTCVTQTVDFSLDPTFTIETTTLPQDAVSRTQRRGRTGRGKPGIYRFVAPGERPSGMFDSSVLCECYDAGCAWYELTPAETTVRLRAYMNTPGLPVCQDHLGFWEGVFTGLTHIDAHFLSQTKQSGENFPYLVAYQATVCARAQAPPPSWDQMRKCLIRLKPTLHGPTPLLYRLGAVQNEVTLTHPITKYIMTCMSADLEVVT
Sequence of NS3/4A protease (P27958 1658-1711): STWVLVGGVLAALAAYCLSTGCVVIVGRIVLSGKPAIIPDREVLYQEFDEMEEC

## COc1ccc2c(O[C@@H]3C[C@H]4C(=O)N[C@]5(C(=O)O)C[C@H]5/C=C\CCCCC[C@H](NC(=O)OC5CCCC5)C(=O)N4C3)cc(-c3csc(NC(C)C)n3)nc2c1 [BILN-2061]
NS3/4A protease
  EC50: ~2 nM
[1]
  cellular toxicity as measured by MTS assay: did not cause detectable cellular toxicity

## Cc1ccc(S(=O)(=O)N[C@@H](Cc2ccccc2)C(=O)CCl)cc1 [TPCK, N-tosyl-1-phenylalanine chloromethyl ketone, reference compound]
[2]; [5]
  extracellular SEAP activity: dose-dependent decrease
[2]; at 0.2 μM, Ava5-EG(Δ4AB)SEAP cells, 72 hours
  suppression of HCV replication: more than 50%

## IFN-α
[3]
  SEAP activity in the culture medium: decreased
[4]
  RNA levels of gadph (housekeeping gene): remained the same
[4]; especially after 3 days of treatment
  HCV RNA levels: declined
[2]; 0-50 units/ml, Ava5-EG(Δ4AB)SEAP clone 1
  SEAP activity in the culture medium: decreased
HCV RNA
  HCV RNA level (dot blot): decreased
NS3/4A protein
  cellular NS3/4A protein level (western blot): decreased
HCV NS3 protease
  HCV NS3 protease levels: declined

B1: IFN-γ: IFN-γ, known anti-HCV compound (Frese et al., 2002) (protein, UniProt P01579 24-161, looked up)
Interferon gamma: QDPYVKEAENLKKYFNAGHSDVADNGTLFLGILKNWKEESDRKIMQSQIVSFYFKLFKNFKDDQSIQKSVETIKEDMNVKFFNSNKKKRDDFEKLTNYSVTDLNVQRKAIHELIQVMAELSPAAKTGKRKRSQMLFRG
[2]; [5]
  extracellular SEAP activity: repressed
[2]; extracellular SEAP activity, Ava5-EG(Δ4AB)SEAP cells, 72 hours
  EC50 (effective concentration for 50% inhibition): below 10 IU/ml
